Test results from PubChem BioAssay (NCI).
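In this assay, cells in 96-well plates receive the compound at five concentrations for 48 hours. Endpoints are linearly interpolated between the surrounding concentrations. GI50 = concentration required for 50% inhibition of growth. TGI: concentration producing complete growth inhibition.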

Assays:
Assay in all cases: NCI-60 cell line screen, 48 h
A498 renal = test system: A498 renal
A549 NSCLC = test system: A549 NSCLC
ACHN renal = test system: ACHN renal
CAKI-1 renal = test system: CAKI-1 renal
CCRF-CEM leukemia = test system: CCRF-CEM leukemia
COLO 205 colon = test system: COLO 205 colon
DU-145 prostate = test system: DU-145 prostate
HCC-2998 colon = test system: HCC-2998 colon
HCT-15 colon = test system: HCT-15 colon
HOP-62 NSCLC = test system: HOP-62 NSCLC
HOP-92 NSCLC = test system: HOP-92 NSCLC
HT29 colon = test system: HT29 colon
IGROV1 ovarian = test system: IGROV1 ovarian
K-562 leukemia = test system: K-562 leukemia
KM12 colon = test system: KM12 colon
LOX IMVI melanoma = test system: LOX IMVI melanoma
M14 melanoma = test system: M14 melanoma
MCF7 breast = test system: MCF7 breast
MDA-MB-231 breast = test system: MDA-MB-231 breast
MDA-MB-435 = test system: MDA-MB-435
MDA-N = test system: MDA-N
NCI-H23 lung = test system: NCI-H23 lung
NCI-H460 lung = test system: NCI-H460 lung
OVCAR-3 ovarian = test system: OVCAR-3 ovarian
OVCAR-4 ovarian = test system: OVCAR-4 ovarian
OVCAR-5 ovarian = test system: OVCAR-5 ovarian
OVCAR-8 ovarian = test system: OVCAR-8 ovarian
PC-3 prostate = test system: PC-3 prostate
RPMI-8226 leukemia = test system: RPMI-8226 leukemia
RXF 393 renal = test system: RXF 393 renal
SF-295 CNS = test system: SF-295 CNS
SF-539 CNS = test system: SF-539 CNS
SK-MEL-2 melanoma = test system: SK-MEL-2 melanoma
SK-MEL-28 melanoma = test system: SK-MEL-28 melanoma
SK-MEL-5 melanoma = test system: SK-MEL-5 melanoma
SK-OV-3 ovarian = test system: SK-OV-3 ovarian
SNB-19 CNS = test system: SNB-19 CNS
SNB-75 CNS = test system: SNB-75 CNS
SW-620 colon = test system: SW-620 colon
T-47D breast = test system: T-47D breast
TK-10 renal = test system: TK-10 renal
U251 CNS = test system: U251 CNS
UACC-257 melanoma = test system: UACC-257 melanoma
UACC-62 melanoma = test system: UACC-62 melanoma
UO-31 renal = test system: UO-31 renal
786-0 renal = test system: 786-0 renal
BT-549 breast = test system: BT-549 breast
EKVX NSCLC = test system: EKVX NSCLC
HCT-116 colon = test system: HCT-116 colon
HL-60(TB) leukemia = test system: HL-60(TB) leukemia
HS 578T breast = test system: HS 578T breast
MALME-3M melanoma = test system: MALME-3M melanoma
MOLT-4 leukemia = test system: MOLT-4 leukemia
NCI-H226 lung = test system: NCI-H226 lung
NCI-H522 lung = test system: NCI-H522 lung
NCI/ADR-RES ovarian = test system: NCI/ADR-RES ovarian
SF-268 CNS = test system: SF-268 CNS
SN12C renal = test system: SN12C renal
SR leukemia = test system: SR leukemia

## CCOC(=O)c1csc(NC(=O)C(C)N2CCCC2)n1 (centres undefined)
A498 renal
  TGI: > 100 µM
A549 NSCLC
  TGI: > 100 µM
ACHN renal
  TGI: > 100 µM
CAKI-1 renal
  TGI: > 100 µM
CCRF-CEM leukemia
  TGI: > 100 µM
COLO 205 colon
  TGI: > 100 µM
DU-145 prostate
  TGI: > 100 µM
HCC-2998 colon
  TGI: > 100 µM
HCT-15 colon
  TGI: > 100 µM
HOP-62 NSCLC
  TGI: > 100 µM
HOP-92 NSCLC
  TGI: > 100 µM
HT29 colon
  TGI: > 100 µM
IGROV1 ovarian
  TGI: > 100 µM
K-562 leukemia
  TGI: > 100 µM
KM12 colon
  TGI: > 100 µM
LOX IMVI melanoma
  TGI: > 100 µM
M14 melanoma
  TGI: > 100 µM
MCF7 breast
  TGI: > 100 µM
MDA-MB-231 breast
  TGI: > 100 µM
MDA-MB-435
  TGI: > 100 µM
MDA-N
  TGI: > 100 µM
NCI-H23 lung
  TGI: > 100 µM
NCI-H460 lung
  TGI: > 100 µM
OVCAR-3 ovarian
  TGI: > 100 µM
OVCAR-4 ovarian
  TGI: > 100 µM
OVCAR-5 ovarian
  TGI: > 100 µM
OVCAR-8 ovarian
  TGI: > 100 µM
PC-3 prostate
  TGI: > 100 µM
RPMI-8226 leukemia
  TGI: > 100 µM
RXF 393 renal
  TGI: > 100 µM
SF-295 CNS
  TGI: > 100 µM
SF-539 CNS
  TGI: > 100 µM
SK-MEL-2 melanoma
  TGI: > 100 µM
SK-MEL-28 melanoma
  TGI: > 100 µM
SK-MEL-5 melanoma
  TGI: > 100 µM
SK-OV-3 ovarian
  TGI: > 100 µM
SNB-19 CNS
  TGI: > 100 µM
SNB-75 CNS
  TGI: > 100 µM
SW-620 colon
  TGI: > 100 µM
T-47D breast
  TGI: > 100 µM
TK-10 renal
  TGI: > 100 µM
U251 CNS
  TGI: > 100 µM
UACC-257 melanoma
  TGI: > 100 µM
UACC-62 melanoma
  TGI: > 100 µM
UO-31 renal
  TGI: > 100 µM

## OCc1cn(Cc2ccccc2)c2ccccc12
786-0 renal
  TGI: > 53 µM
A549 NSCLC
  TGI: > 100 µM
ACHN renal
  TGI: > 58.2 µM
BT-549 breast
  TGI: 23.1 µM
CAKI-1 renal
  TGI: 1.64 µM
CCRF-CEM leukemia
  TGI: > 40.9 µM
COLO 205 colon
  TGI: 13.6 µM
DU-145 prostate
  TGI: > 37.2 µM
EKVX NSCLC
  TGI: > 100 µM
HCT-116 colon
  TGI: > 26.3 µM
HCT-15 colon
  TGI: 31.4 µM
HL-60(TB) leukemia
  TGI: > 83.2 µM
HOP-62 NSCLC
  TGI: > 100 µM
HOP-92 NSCLC
  TGI: 22.9 µM
HS 578T breast
  TGI: 30.4 µM
HT29 colon
  TGI: > 84.5 µM
IGROV1 ovarian
  TGI: 2.09 µM
K-562 leukemia
  TGI: > 100 µM
KM12 colon
  TGI: > 63.8 µM
LOX IMVI melanoma
  TGI: > 45.3 µM
M14 melanoma
  TGI: > 54.3 µM
MALME-3M melanoma
  TGI: 19.5 µM
MCF7 breast
  TGI: > 18 µM
MDA-MB-231 breast
  TGI: 54.5 µM
MDA-MB-435
  TGI: > 64.7 µM
MDA-N
  TGI: > 65.5 µM
MOLT-4 leukemia
  TGI: > 100 µM
NCI-H226 lung
  TGI: 0.123 µM
NCI-H23 lung
  TGI: 31 µM
NCI-H460 lung
  TGI: 35.8 µM
NCI-H522 lung
  TGI: 17.1 µM
NCI/ADR-RES ovarian
  TGI: 42.4 µM
OVCAR-3 ovarian
  TGI: 6.96 µM
OVCAR-5 ovarian
  TGI: 0.838 µM
OVCAR-8 ovarian
  TGI: 46.9 µM
PC-3 prostate
  TGI: 78.2 µM
RPMI-8226 leukemia
  TGI: 12.1 µM
RXF 393 renal
  TGI: 4.53 µM
SF-268 CNS
  TGI: 40.2 µM
SF-295 CNS
  TGI: > 100 µM
SF-539 CNS
  TGI: > 69 µM
SK-MEL-2 melanoma
  TGI: 24.6 µM
SK-MEL-28 melanoma
  TGI: > 100 µM
SK-MEL-5 melanoma
  TGI: > 47.2 µM
SK-OV-3 ovarian
  TGI: > 100 µM
SN12C renal
  TGI: > 46.8 µM
SNB-19 CNS
  TGI: > 100 µM
SNB-75 CNS
  TGI: 5.64 µM
SR leukemia
  TGI: > 100 µM
SW-620 colon
  TGI: > 100 µM
U251 CNS
  TGI: 60.6 µM
UACC-62 melanoma
  TGI: 4.98 µM
UO-31 renal
  TGI: > 100 µM

## COc1ccc2c(c1)C(=O)c1c-2c(Nc2ccccc2OC)nc2ccccc12
786-0 renal
  GI50: > 100 µM
  TGI: > 100 µM
A498 renal
  GI50: > 100 µM
  TGI: > 100 µM
A549 NSCLC
  GI50: > 100 µM
  TGI: > 100 µM
ACHN renal
  GI50: 89.2 µM
  TGI: > 100 µM
BT-549 breast
  GI50: > 100 µM
  TGI: > 100 µM
CAKI-1 renal
  GI50: > 100 µM
  TGI: > 100 µM
CCRF-CEM leukemia
  GI50: > 100 µM
  TGI: > 100 µM
COLO 205 colon
  GI50: > 100 µM
  TGI: > 100 µM
DU-145 prostate
  GI50: > 100 µM
  TGI: > 100 µM
EKVX NSCLC
  GI50: > 100 µM
  TGI: > 100 µM
HCC-2998 colon
  GI50: > 100 µM
  TGI: > 100 µM
HCT-116 colon
  GI50: > 100 µM
  TGI: > 100 µM
HCT-15 colon
  GI50: > 100 µM
  TGI: > 100 µM
HL-60(TB) leukemia
  GI50: > 100 µM
  TGI: > 100 µM
HOP-62 NSCLC
  GI50: > 100 µM
  TGI: > 100 µM
HOP-92 NSCLC
  GI50: 26.4 µM
  TGI: > 100 µM
HS 578T breast
  GI50: > 100 µM
  TGI: > 100 µM
HT29 colon
  GI50: > 100 µM
  TGI: > 100 µM
IGROV1 ovarian
  GI50: > 100 µM
  TGI: > 100 µM
K-562 leukemia
  GI50: > 100 µM
  TGI: > 100 µM
KM12 colon
  GI50: > 100 µM
  TGI: > 100 µM
LOX IMVI melanoma
  GI50: > 100 µM
  TGI: > 100 µM
M14 melanoma
  GI50: > 100 µM
  TGI: > 100 µM
MALME-3M melanoma
  GI50: > 100 µM
  TGI: > 100 µM
MCF7 breast
  GI50: > 100 µM
  TGI: > 100 µM
MDA-MB-231 breast
  GI50: > 100 µM
  TGI: > 100 µM
MDA-MB-435
  GI50: > 100 µM
  TGI: > 100 µM
MOLT-4 leukemia
  GI50: > 100 µM
  TGI: > 100 µM
NCI-H226 lung
  GI50: > 100 µM
  TGI: > 100 µM
NCI-H23 lung
  GI50: > 100 µM
  TGI: > 100 µM
NCI-H460 lung
  GI50: > 100 µM
  TGI: > 100 µM
NCI-H522 lung
  GI50: > 100 µM
  TGI: > 100 µM
NCI/ADR-RES ovarian
  GI50: > 100 µM
  TGI: > 100 µM
OVCAR-3 ovarian
  GI50: > 100 µM
  TGI: > 100 µM
OVCAR-4 ovarian
  GI50: 50.5 µM
  TGI: > 100 µM
OVCAR-5 ovarian
  GI50: > 100 µM
  TGI: > 100 µM
OVCAR-8 ovarian
  GI50: > 100 µM
  TGI: > 100 µM
PC-3 prostate
  GI50: > 100 µM
  TGI: > 100 µM
RPMI-8226 leukemia
  GI50: > 100 µM
  TGI: > 100 µM
RXF 393 renal
  GI50: > 100 µM
  TGI: > 100 µM
SF-268 CNS
  GI50: > 100 µM
  TGI: > 100 µM
SF-295 CNS
  GI50: > 100 µM
  TGI: > 100 µM
SF-539 CNS
  GI50: > 100 µM
  TGI: > 100 µM
SK-MEL-2 melanoma
  GI50: > 100 µM
  TGI: > 100 µM
SK-MEL-28 melanoma
  GI50: > 100 µM
  TGI: > 100 µM
SK-MEL-5 melanoma
  GI50: > 100 µM
  TGI: > 100 µM
SK-OV-3 ovarian
  GI50: > 100 µM
  TGI: > 100 µM
SN12C renal
  GI50: 42.1 µM
  TGI: > 100 µM
SNB-19 CNS
  GI50: > 100 µM
  TGI: > 100 µM
SNB-75 CNS
  GI50: > 100 µM
  TGI: > 100 µM
SR leukemia
  GI50: > 100 µM
  TGI: > 100 µM
SW-620 colon
  GI50: > 100 µM
  TGI: > 100 µM
T-47D breast
  GI50: > 100 µM
  TGI: > 100 µM
TK-10 renal
  GI50: > 100 µM
  TGI: > 100 µM
U251 CNS
  GI50: 83.2 µM
  TGI: > 100 µM
UACC-257 melanoma
  GI50: > 100 µM
  TGI: > 100 µM
UACC-62 melanoma
  GI50: > 100 µM
  TGI: > 100 µM
UO-31 renal
  GI50: > 100 µM
  TGI: > 100 µM
